Data set [1] concerns the target T1, A. californica ADP-ribosyl cyclase (Aplysia californica, UniProt P29241).
T1 construct: The cyclase purified from the mollusc Aplysia californica was purchased from Sigma; purchased Sigma; host or cells: purified from the mollusc
T1 sequence (P29241 25-282): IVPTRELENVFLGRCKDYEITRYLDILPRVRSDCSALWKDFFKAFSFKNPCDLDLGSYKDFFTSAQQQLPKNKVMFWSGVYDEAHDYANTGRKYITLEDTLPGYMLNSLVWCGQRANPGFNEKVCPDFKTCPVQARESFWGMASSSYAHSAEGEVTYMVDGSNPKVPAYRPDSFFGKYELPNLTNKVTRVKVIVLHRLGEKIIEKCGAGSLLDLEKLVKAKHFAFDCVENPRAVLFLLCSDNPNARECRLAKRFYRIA
The experiment in a line: Hydrolysis by Aplysia californica ADP-ribosyl cyclase. Format: in vitro ADME. The conditions noted are these: P18 to adenine and ADPR. As to the method:
(A and B) or at 37° C. (C and D) for 4 hours. […] Chromatograms representative of each incubation are shown. A. A. polypoides; B. A. californica; C.
The activities are expressed as nmol/min/mg.

The target of data set [2] is NAD-glycohydrolase (NAD-ase, from Neurospora) (Neurospora crassa, UniProt Q7S936). The experiment in a line: Resistance to NAD-glycohydrolase catalysed hydrolysis.
Experimental: The HPLC fractions were lyophilised, resuspended in 200 μl water and the pH eas adjusted to 7.5 with 5N NaOH. Then, in order to remove all traces of NAD^+ and cADPR (which might interfere with the enzymatic assay), NAD-glycohydrolase (NAD-ase, from Neurospora, Sigma) (0.013 IU), recombinant CD38 (0.1 μg, provided by Prof. H. C. Lee, Minneapolis, Minn.) and 2 mM MgCl2 were added to each fraction. […] All fractions were incubated at 37° C. for 18 hours, and the enzymes were removed by filtration with Immobilon-P membranes (Millipore, Bedford, Mass.). The samples were then subdivided into two aliquots and the P18 determination reactions were performed in 96 well plates, at room temperature. 50 μl of a mixture containing 30 mM nicotinamide, 100 mM sodium phosphate, with or without 0.1 μg/μl of ADP-ribosyl cyclase purified from A. polypoides, were added to 100 μl of each sample.
For data set [3], the system named is A. polypoides ADP-ribosyl cyclase. Nature of the data set: Hydrolysis by purified Axinella polypoides ADP-ribosyl cyclase. The conditions noted are these: purified A. polypoides cyclase; P18 to cADPR and adenine. As to the method:
ADP-ribosyl cyclases from lower and higher Metazoa were incubated in the presence of 0.1 mM cADPR and 1 mM adenine at pH 7.4 in 10 mM Tris-HCl (A, B and C) or in PBS-glucose (D) at 22° C. (A and B) or at 37° C. (C and D) for 4 hours. Aliquots of the various incubations were deproteinised with TCA (trichloroacetic acid) and subjected to HPLC (analytical phosphate). Chromatograms representative of each incubation are shown. A. A. polypoides; B. A. californica; C. Human CD38 (recombinant); D. Human HeLa cells transfected with sense and antisense human CD38 (dashed chromatogram).
In table 1, the absolute values of the peak-forming and -hydrolysing activities are compared with the cADPR-forming and -hydrolysing activities for each enzyme. The activities are expressed as nmol/min/mg.

The next data set deals with HL60. Nature of the data set: MTT reduction proliferation assay, HL60. The conditions noted are these: HL60 promyelocytic leukemia, 24 hours. It is filed as cell-based, human. Here is the method:
The effect of P18 and P24 on the proliferation of several cell lines was determined by the MTT reduction assay (Mosmann, T. (1983) J. Immunol. Methods 65, 55-63). Briefly, cells were seeded at a concentration of 3×10^4/well in flat-bottomed 96-well plates and grown in complete medium in the presence of various concentrations (ranging between 20 and 0.4 μM) of purified dinucleotides. After 24 hours, 10 μl of a 5 mg/ml solution of MTT were added to each well and the plates incubated for a further 2 hours. The supernatant was then removed from each well and the blue crystals produced by the reduction of the dye were dissolved in DMSO (200 μl/well). The optical absorbance at 570 nm was determined with a BioRad microplate reader.
In these experiments, cells were seeded onto 96 well plates (3×10^4 cells per well) and incubated in the presence of increasing concentrations of P18 or P24. After 24 hours, the percentage of viable cells was evaluated by spectrophotometric measurement of the concentration of reduced MTT (see Materials and Methods). The means of at least three separate experiments are shown (s.d.≦20% of the mean value). […]

pIC50: −log10 of the molar value.

Sequence of NAD-glycohydrolase (NAD-ase, from Neurospora) (Q7S936 20-243): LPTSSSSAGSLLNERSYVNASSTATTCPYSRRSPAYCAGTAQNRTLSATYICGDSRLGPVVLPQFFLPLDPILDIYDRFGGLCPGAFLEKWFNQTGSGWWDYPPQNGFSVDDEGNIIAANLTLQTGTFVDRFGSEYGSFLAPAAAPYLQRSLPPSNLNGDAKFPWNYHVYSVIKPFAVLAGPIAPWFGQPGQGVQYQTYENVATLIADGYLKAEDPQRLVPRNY

For the compound `Nc1ncnc2c1ncn2[C@@H]1O[C@H](COP(=O)(O)OP(=O)(O)OC[C@H]2O[C@@H](n3cnc4ncnc-4c3N)[C@H](O)[C@@H]2O)[C@@H](O)[C@H]1O` [P18], the results for the hydrolysis activity in data set [1] and in data set [3] were 3.5^1 nmol/min/mg and 10.5^2 nmol/min/mg, respectively. Also, in data set [2], the “resistance to NAD-ase catalysed hydrolysis” value is listed as “resistance”. Besides, in the data set with HL60, the pIC50 is 4.59.

In the data set on HL60, `Nc1ncn([C@@H]2O[C@H](COP(=O)(O)OP(=O)(O)OC[C@H]3O[C@@H](n4cnc5c(N)ncnc54)[C@H](O)[C@@H]3O)[C@@H](O)[C@H]2O)c2ncnc1-2` [P24] had a pIC50 of 5.70.

The record behind these values is US7868163B2, “Adenyl dinucleotides with antitumour activity and a method of preparing thereof” (Universita' Degli Studi Di Genova, priority 2005, dated 2011).
